# Measurements: patent US20250090626A1, “NEW PEPTIDE AND USES THEREOF” (Neo Cremar Co., Ltd., priority 2021, published 2025)
# No end group written: not given here.
# Tests used:
# C2C12 cells [1] = assay: Scratch experiment, degree of cell recovery; type: cell-based, mouse; settings: C2C12, 1000 nM peptide, 1 day in proliferation medium
# Method: When the C2C12 cells were 100% grown, cells were scratches on the surface, treated with 1000 nM MIF1 or Ac-MIF1 peptides, and cultured for 1 day, followed by observation for a degree of cell recovery.
# C2C12 cells [2] = assay: Protein expression of myodifferentiation and sarcopenia factors (Western blot, immunocytochemistry); type: cell-based, mouse; settings: C2C12 myodifferentiation, peptide-treated vs untreated
# Method: The medium of cultured C2C12 cells was removed and washed once with PBS. The washed cells were treated with 4% formaldehyde (Sigma), fixed for 15 minutes, then washed using PBS, added with 0.2% trypton X-100 (Sigma), and left for 5 minutes. After washing again using PBS, adding 1% normal goat serum, and leaving for 30 minutes, the primary antibody (MYOD, myogenin (MYOG):myosin light chain (MYL2); 1:50) was added to carry out a reaction at 4° C. for 14 hours. The antibodies were removed, washing was performed 3 times with PBS for 10 minutes, and then the cells were left with secondary antibody (Alexa Fluor 488 goat anti-Mouse & rabbit SFX kit t) for 1 hour. After 1 hour, the antibodies were removed, washing was performed with PBS for 10 minutes, the nuclei were stained with 4′,6-diamidino-2-phenylindol (DAPI), and the expression of the proteins was observed using fluorescence microscopy.
# (1) The medium of cultured C2C12 cells was removed, followed by washing with PBS. After adding LIPA buffer and protease inhibitor to the washed cells, the proteins included in the supernatant were collected after centrifugation for 10 minutes at 12000 rpm. 40 μg of the extracted proteins were subjected to electrophoresis in 8 to 10% acrylamide gel and then transferred to a polyvinylidene fluoride (PVDF) membrane (Milipore). These were blocked with 3% skim milk or bovine serum albumin (BSA) at room temperature for 1 hour. Afterwards, primary antibody diluted in 1% skim milk or BSA (Pax7; 1:500, MYOD; 1:500, MYOG; 1:400, MYL2; 1:1000, MYH; 1:500, MSTN; 1:1000, β-actin; 1:1000, MuRF1; 1:400, and Atrogin; 1:1:400) was added and reacted at 4° C. for over 16 hours. After 16 hours, cells were washed three times with TBST (Tris-buffered saline with Tween 20) and reacted with secondary antibody with horseradish peroxidase (HRP) conjugated at room temperature for 1 hour. It was washed three times with TBST and developed after adding Super Signal West Pico Chemiluminescent Substrate.
# C57BL/6 mice = assay: Myoregeneration effect upon injection of Ac-MIF1 peptide in cardiotoxin-damaged gastrocnemius; type: in vivo, mouse
# Excerpt: The male C57BL/6 mice were purchased from Dae Han Bio Link Co., Ltd., four of which per cage were kept in a temperature-controlled room with a 12-hour light cycle. The animals were fed with a standard rodent diet containing 4.0% (wt/wt) total fat (Rodent NIH-31 Open Formula Auto; Zeigler Bros., Inc., Gardners, PA, USA) and water. All experiments involving animals complied with the guidelines (YUMC-AEC2015-006) issued by the Animal Control Committee of Youngnam University's Animal Research Institute. The MSTN knock-out mouse was provided by a laboratory at Seoul National University. Normal, MSTN+/− (heterozygous), and MSTN−/− (homozygous) adipose tissues were fixed by collecting from 6-week-old mice and stored at −80° C. until required for analysis.
# Muscle tissues containing paraffin was subjected to deparaffinization with xylene and ethanol and hydration, respectively, and the tissue was soaked in 0.3% hydrogen peroxide water (H2O2)/methanol for 15 minutes to stop endogenous peroxidase activity. Then, tissues were stained with hematoxylin/eosin for morphological observation or reacted with 1% normal goat serum at room temperature for 1 hour to block a reaction with non-specific antibodies, followed by a reaction with the primary antibody (1:50) at 4° C. for over 16 hours. After 16 hours, washing was performed 3 times with PBS, followed by a reaction with secondary antibody (1:100) with HRP conjugated at room temperature for 1 hour. Horse radish peroxidase-conjugated streptavidin was added to detect the expression of the protein, followed by observation under a microscope.
# In order to observe the myoregeneration effect following MIF peptide injection, mice were injected with Ac-MIF 1 peptide and injected/uninjected with cardiotoxin (hereinafter referred to as CTX) into the muscle, followed by observation of the morphology and regeneration of the muscle. A day after C57BL/6 mice were injected with Ac-MIF1 peptide (1.125 mM), […] cardiotoxin was injected into the gastrocnemius. Muscle tissues were sampled 7 days after CTX injection.
# Paraffin-embedded muscle sections were deparaffinized using xylene, rehydrated using a concentration gradient of ethanol, stained with hematoxylin and eosin, observed under an optical microscope, magnified at 400× scale, and photographed, followed by measurement of the diameter of muscle fibers using Image J software.
# C2C12 cells [3] = assay: Myodifferentiation, Giemsa staining, root canal formation and fusion index; type: cell-based, mouse; settings: 3 days
# Method: When C2C12 cells were 70% grown, media were replaced with myodifferentiation medium added with MSTN protein (1 ng), Ac-MIF1 (1000 nM), and Ac-MIF1 (1000 nM)+MSTN protein (1 ng) from proliferation medium, followed by culture for 3 days.
# When the cells grew more than 70% for differentiation of myoblasts into myocytes, they were cultured for 3 days by replacing with a differentiation medium (DMEM+2% FBS+1% P/S). The medium was replaced once daily, and the cells were cultured at 37° C.
# The cell medium was removed, and the cells were washed with PBS. After washing, a methanol:PBS reagent in a 1:1 volume ratio was treated, followed by fixation for 2 minutes. Additionally, after a methanol:PBS reagent in a 2:1 volume ratio was added, fixation was followed for additional 2 minutes. After 2 minutes, 0.04% Giemsa reagent was added, and then the cells were left for 30 minutes, washed with PBS after 30 minutes, and observed under a microscope, with 3 photographs taken for each cell (300×). In the photographs taken, the number of fused nuclei in the root canal cells was counted, the number of nuclei of total cells was counted, and the number of fused nuclei was divided by the number of nuclei of the total cells to obtain the % value.
# [4] = muscle injected with Ac-MIF1 peptide, 7 days after CTX, FIG. 10A
# [5] = muscle injected with Ac-MIF1 peptide, 7 days after CTX, FIG. 10B
substance,measurement,setting,value
"Ac-VDFEAFWDWG [Ac-MIF1, MIF1 with N-terminus acetylated, 10 mer]","scratch recovery degree, increase compared to untreated cells",C2C12 cells [1],28%
same,ACVRIIB protein expression,C2C12 cells [2],reduced
same,Atrogin1 protein expression,C2C12 cells [2],reduced
same,MSTN protein expression,C2C12 cells [2],reduced
same,MYH protein expression,C2C12 cells [2],increased
same,MYOD protein expression,C2C12 cells [2],increased
same,MYOG protein expression,C2C12 cells [2],increased
same,muscle weight compared to muscle without injection,C57BL/6 mice; 7 days after CTX injection,no significant difference
same,muscle weight,"C57BL/6 mice; CTX + Ac-MIF 1, gastrocnemius, 7 days after CTX injection",0.140 ± 0.003 g
same,MSTN mRNA expression in muscle,C57BL/6 mice; [4],increased
same,MYL2 mRNA expression in muscle,C57BL/6 mice; [4],increased
same,MYOD mRNA expression in muscle,C57BL/6 mice; [4],increased
same,MYL2 protein expression in muscle,C57BL/6 mice; [5],increased
same,MYOD protein expression in muscle,C57BL/6 mice; [5],increased
same,MYOG protein expression in muscle,C57BL/6 mice; [5],increased
same,Pax7 protein expression in muscle,C57BL/6 mice; [5],increased
same,diameter of the muscle fibers compared to without peptide injection,"C57BL/6 mice; muscle injected with Ac-MIF1 peptide, 7 days after CTX, FIG. 10C",increased
same,"fusion index, increase compared to untreated cells","C2C12 cells [3]; C2C12, differentiation medium including peptide",11%
same,root canal formation compared to untreated cells,"C2C12 cells [3]; C2C12, differentiation medium",increased
same,fusion index compared to untreated cells,"C2C12 cells [3]; C2C12, muscle differentiation medium, Ac-MIF1 1000 nM, FIG. 9",increased
